Laboratory results as given in publication PMC3540140 (Journal of molecular biology, 2012).

Experiments:
[1] = target: JNK1 (Homo sapiens, UniProt P45983); test: IMAP-based FP kinase assay; format: biochemical
[2] = target: C-terminal truncated form of human JNK1α1 (residues 1–364) (human, UniProt P45983-2 1-364); test: crystal structure
Sequence of C-terminal truncated form of human JNK1α1 (residues 1–364) (P45983 1-364): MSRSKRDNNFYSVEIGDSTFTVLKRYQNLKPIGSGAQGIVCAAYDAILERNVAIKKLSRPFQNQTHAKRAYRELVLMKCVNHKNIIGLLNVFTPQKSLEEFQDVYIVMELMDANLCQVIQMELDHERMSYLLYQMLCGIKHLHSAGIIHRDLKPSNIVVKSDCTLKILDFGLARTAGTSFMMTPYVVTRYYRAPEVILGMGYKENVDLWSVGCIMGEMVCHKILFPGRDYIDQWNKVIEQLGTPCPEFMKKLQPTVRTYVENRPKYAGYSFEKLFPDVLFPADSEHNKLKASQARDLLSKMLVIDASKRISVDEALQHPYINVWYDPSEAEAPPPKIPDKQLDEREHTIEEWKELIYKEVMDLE

IC50 [1] [µM]	binding result [2]	Molecule
–	binds	RPKRPTTLNLF [peptide fragment of JIP1 (pepJIP1)]
